# System: 598228-144-R-J1-PDC complex spheroid viability
# Assay: Anticancer human tumor 598228-144-R-J1-PDC patient-derived serous endometrial adenocarcinoma cell line growth inhibition [GQUAD]
# Conditions: for IC50: curve of first compound; for viability, T/C: stronger effect = lower value
# Method in brief: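 Multi-cell-type spheroids of tumor cells with HUVEC and mesenchymal stem cells, treated with drug combinations. Concentrations descend in half-log steps from near clinical Cmax, or from 10 microM where Cmax is unknown; viability read-out.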
# [1] = second compound 0.0316 µM, first compound 0.0316 µM
# [2] = second compound 0.0316 µM, first compound 0.1 µM
# [3] = second compound 0.0316 µM, first compound 0.316 µM
# [4] = second compound 0.0316 µM, first compound 1 µM
# [5] = second compound 0.0316 µM, first compound 3.16 µM
# [6] = second compound 0.0316 µM, first compound 10 µM
# [7] = second compound 0.1 µM, first compound 0.0316 µM
# [8] = second compound 0.1 µM, first compound 0.1 µM
# [9] = second compound 0.1 µM, first compound 0.316 µM
# [10] = second compound 0.1 µM, first compound 1 µM
# [11] = second compound 0.1 µM, first compound 3.16 µM
# [12] = second compound 0.1 µM, first compound 10 µM
# [13] = second compound 0.316 µM, first compound 0.0316 µM
# [14] = second compound 0.316 µM, first compound 0.1 µM
# [15] = second compound 0.316 µM, first compound 0.316 µM
# [16] = second compound 0.316 µM, first compound 1 µM
# [17] = second compound 0.316 µM, first compound 3.16 µM
# [18] = second compound 0.316 µM, first compound 10 µM
# [19] = second compound 1 µM, first compound 0.0316 µM
# [20] = second compound 1 µM, first compound 0.1 µM
# [21] = second compound 1 µM, first compound 0.316 µM
# [22] = second compound 1 µM, first compound 1 µM
# [23] = second compound 1 µM, first compound 3.16 µM
# [24] = second compound 1 µM, first compound 10 µM
# [25] = second compound 3.16 µM, first compound 0.0316 µM
# [26] = second compound 3.16 µM, first compound 0.1 µM
# [27] = second compound 3.16 µM, first compound 0.316 µM
# [28] = second compound 3.16 µM, first compound 1 µM
# [29] = second compound 3.16 µM, first compound 3.16 µM
# [30] = second compound 3.16 µM, first compound 10 µM
# [31] = second compound 10 µM, first compound 0.0316 µM
# [32] = second compound 10 µM, first compound 0.1 µM
# [33] = second compound 10 µM, first compound 0.316 µM
# [34] = second compound 10 µM, first compound 1 µM
# [35] = second compound 10 µM, first compound 3.16 µM
# [36] = second compound 10 µM, first compound 10 µM
# 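Note: spheroids exposed to the agents for one week before reading.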
# 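Throughout, for viability, T/C: percent of vehicle DMSO control viability so 100% = untreated growth.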
structure (smiles),measurement,setting,value
CC(=O)O[C@H]1C(=O)[C@@]2(C)[C@H]([C@H](OC(=O)c3ccccc3)[C@]3(O)C[C@H](OC(=O)[C@H](O)[C@@H](NC(=O)c4ccccc4)c4ccccc4)C(C)=C1C3(C)C)[C@]1(OC(C)=O)CO[C@@H]1C[C@@H]2O + Cc1cnc(CNC(=O)c2c(=O)c3ccc(N4CCCN(C)CC4)nc3n3c2sc2ccccc23)cn1,IC50,second compound 0.0316 µM,< 31.6 nM
same,IC50,second compound 0.1 µM,< 31.6 nM
same,IC50,second compound 0.316 µM,533 nM
same,IC50,second compound 1 µM,7490 nM
same,IC50,second compound 3.16 µM,< 31.6 nM
same,IC50,second compound 10 µM,< 31.6 nM
same,"viability, T/C",[1],50.2%
same,"viability, T/C",[2],37%
same,"viability, T/C",[3],45.2%
same,"viability, T/C",[4],41.3%
same,"viability, T/C",[5],43.7%
same,"viability, T/C",[6],43.2%
same,"viability, T/C",[7],48.4%
same,"viability, T/C",[8],54.9%
same,"viability, T/C",[9],44.5%
same,"viability, T/C",[10],49.9%
same,"viability, T/C",[11],53.2%
same,"viability, T/C",[12],51.7%
same,"viability, T/C",[13],49%
same,"viability, T/C",[14],67.9%
same,"viability, T/C",[15],45.9%
same,"viability, T/C",[16],39.1%
same,"viability, T/C",[17],51.2%
same,"viability, T/C",[18],49.6%
same,"viability, T/C",[19],52.1%
same,"viability, T/C",[20],59.9%
same,"viability, T/C",[21],53.2%
same,"viability, T/C",[22],50%
same,"viability, T/C",[23],50%
same,"viability, T/C",[24],50.9%
same,"viability, T/C",[25],46.9%
same,"viability, T/C",[26],38.8%
same,"viability, T/C",[27],43.2%
same,"viability, T/C",[28],34.5%
same,"viability, T/C",[29],40.4%
same,"viability, T/C",[30],44.5%
same,"viability, T/C",[31],0.38%
same,"viability, T/C",[32],19.7%
same,"viability, T/C",[33],0.53%
same,"viability, T/C",[34],0.57%
same,"viability, T/C",[35],10.9%
same,"viability, T/C",[36],12.1%
CC[C@@]1(O)C(=O)OCc2c1cc1n(c2=O)Cc2cc3c(CN(C)C)c(O)ccc3nc2-1 + Cc1cnc(CNC(=O)c2c(=O)c3ccc(N4CCCN(C)CC4)nc3n3c2sc2ccccc23)cn1,IC50,second compound 0.0316 µM,> 316 nM
same,IC50,second compound 0.1 µM,> 316 nM
same,IC50,second compound 0.316 µM,> 316 nM
same,IC50,second compound 1 µM,> 316 nM
same,IC50,second compound 3.16 µM,> 316 nM
same,IC50,second compound 10 µM,< 0.999 nM
same,"viability, T/C","second compound 0.0316 µM, first compound 0.000999 µM",83.8%
same,"viability, T/C","second compound 0.0316 µM, first compound 0.00316 µM",107%
same,"viability, T/C","second compound 0.0316 µM, first compound 0.00999 µM",93.2%
same,"viability, T/C",[1],81.6%
same,"viability, T/C","second compound 0.0316 µM, first compound 0.0999 µM",54.8%
same,"viability, T/C",[3],53.9%
same,"viability, T/C","second compound 0.1 µM, first compound 0.000999 µM",85.1%
same,"viability, T/C","second compound 0.1 µM, first compound 0.00316 µM",80.2%
same,"viability, T/C","second compound 0.1 µM, first compound 0.00999 µM",65.5%
same,"viability, T/C",[7],68.7%
same,"viability, T/C","second compound 0.1 µM, first compound 0.0999 µM",64.2%
same,"viability, T/C",[9],63.6%
same,"viability, T/C","second compound 0.316 µM, first compound 0.000999 µM",69.2%
same,"viability, T/C","second compound 0.316 µM, first compound 0.00316 µM",67.9%
same,"viability, T/C","second compound 0.316 µM, first compound 0.00999 µM",68.8%
same,"viability, T/C",[13],78.2%
same,"viability, T/C","second compound 0.316 µM, first compound 0.0999 µM",73.1%
same,"viability, T/C",[15],76.6%
same,"viability, T/C","second compound 1 µM, first compound 0.000999 µM",71%
same,"viability, T/C","second compound 1 µM, first compound 0.00316 µM",72.9%
same,"viability, T/C","second compound 1 µM, first compound 0.00999 µM",71.1%
same,"viability, T/C",[19],68.3%
same,"viability, T/C","second compound 1 µM, first compound 0.0999 µM",75.7%
same,"viability, T/C",[21],58%
same,"viability, T/C","second compound 3.16 µM, first compound 0.000999 µM",67.4%
same,"viability, T/C","second compound 3.16 µM, first compound 0.00316 µM",58.6%
same,"viability, T/C","second compound 3.16 µM, first compound 0.00999 µM",58.7%
same,"viability, T/C",[25],52%
same,"viability, T/C","second compound 3.16 µM, first compound 0.0999 µM",65.6%
same,"viability, T/C",[27],59.4%
same,"viability, T/C","second compound 10 µM, first compound 0.000999 µM",42.5%
same,"viability, T/C","second compound 10 µM, first compound 0.00316 µM",41.2%
same,"viability, T/C","second compound 10 µM, first compound 0.00999 µM",47.7%
same,"viability, T/C",[31],52.3%
same,"viability, T/C","second compound 10 µM, first compound 0.0999 µM",36%
same,"viability, T/C",[33],40.9%
COc1cc(C2c3cc4c(cc3C(OC3OC5COC(C)OC5C(O)C3O)C3COC(=O)C23)OCO4)cc(OC)c1O (stereo unspecified) + Cc1cnc(CNC(=O)c2c(=O)c3ccc(N4CCCN(C)CC4)nc3n3c2sc2ccccc23)cn1,IC50,second compound 0.0316 µM,8680 nM
same,IC50,second compound 0.1 µM,> 10000 nM
same,IC50,second compound 0.316 µM,> 10000 nM
same,IC50,second compound 1 µM,> 10000 nM
same,IC50,second compound 3.16 µM,3430 nM
same,IC50,second compound 10 µM,765 nM
same,"viability, T/C",[1],79.7%
same,"viability, T/C",[2],85.8%
same,"viability, T/C",[3],88.4%
same,"viability, T/C",[4],58.6%
same,"viability, T/C",[5],79.8%
same,"viability, T/C",[6],46.1%
same,"viability, T/C",[7],89.4%
same,"viability, T/C",[8],60.1%
same,"viability, T/C",[9],54.8%
same,"viability, T/C",[10],66.4%
same,"viability, T/C",[11],55.1%
same,"viability, T/C",[12],44.4%
same,"viability, T/C",[13],87.8%
same,"viability, T/C",[14],62%
same,"viability, T/C",[15],64.2%
same,"viability, T/C",[16],72.1%
same,"viability, T/C",[17],67%
same,"viability, T/C",[18],47.8%
same,"viability, T/C",[19],64.2%
same,"viability, T/C",[20],69.9%
same,"viability, T/C",[21],74.7%
same,"viability, T/C",[22],72%
same,"viability, T/C",[23],71.9%
same,"viability, T/C",[24],46.9%
same,"viability, T/C",[25],64.6%
same,"viability, T/C",[26],70.7%
same,"viability, T/C",[27],73.3%
same,"viability, T/C",[28],61.7%
same,"viability, T/C",[29],51.8%
same,"viability, T/C",[30],35%
same,"viability, T/C",[31],57.6%
same,"viability, T/C",[32],45.2%
same,"viability, T/C",[33],52.1%
same,"viability, T/C",[34],47.5%
same,"viability, T/C",[35],43.2%
same,"viability, T/C",[36],9.83%

# — PubChem BioAssay AID2060506 (Molecular Pharmacology Branch, DTP, NCI, 2025)
